Like-named read-outs stand apart in the source and are kept apart here.
Legend:
[1] = molecular target: SHP-2 enzyme (Met1-Leu525) (Homo sapiens (Human), UniProt Q06124); assay: SHP2 inhibition enzymatic assay; type: biochemical; conditions: 75 μM DiFMUP substrate
Method in brief: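 SHP-2 (Met1-Leu525), 0.5 nM, activated with 500 nM IRS1 bis-phosphopeptide, preincubated 30 min with compounds in HEPES pH 7.2 buffer with 5 mM DTT. 75 μM DiFMUP added for 30 min at room temperature, stopped with bpV; fluorescence read. IC50 from four-parameter logistic fit of % inhibition.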

[2] = test system: ERK phosphorylation in KYSE-520 cells; assay: Phospho-ERK cellular assay; type: cell-based; conditions: read-out: PERK IC50
Method in brief: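 TR-FRET read-out of ERK1/2 Thr202/Tyr204 phosphorylation was taken after overnight antibody incubation at room temperature. Before that, KYSE-520 cells were treated 2 h at 37 °C with compound dilutions and lysed 30 min. Percent inhibition relative to vehicle and cell-free wells was fitted four-parametrically to give IC50.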

[3] = 0.5 nM SHP-2 activated by 500 nM IRS1 peptide, read-out: SHP2wt-IC50
[4] = Homo sapiens, KYSE-520, 2 h, KYSE-520 cells, 2 h at 37° C., phospho-ERK1/2 (Thr202/Tyr204) TR-FRET
[5] = KYSE-520 cells, 2 h at 37° C., phospho-ERK1/2 (Thr202/Tyr204) TR-FRET

SHP-2 enzyme (Met1-Leu525), sequence (Q06124 1-525): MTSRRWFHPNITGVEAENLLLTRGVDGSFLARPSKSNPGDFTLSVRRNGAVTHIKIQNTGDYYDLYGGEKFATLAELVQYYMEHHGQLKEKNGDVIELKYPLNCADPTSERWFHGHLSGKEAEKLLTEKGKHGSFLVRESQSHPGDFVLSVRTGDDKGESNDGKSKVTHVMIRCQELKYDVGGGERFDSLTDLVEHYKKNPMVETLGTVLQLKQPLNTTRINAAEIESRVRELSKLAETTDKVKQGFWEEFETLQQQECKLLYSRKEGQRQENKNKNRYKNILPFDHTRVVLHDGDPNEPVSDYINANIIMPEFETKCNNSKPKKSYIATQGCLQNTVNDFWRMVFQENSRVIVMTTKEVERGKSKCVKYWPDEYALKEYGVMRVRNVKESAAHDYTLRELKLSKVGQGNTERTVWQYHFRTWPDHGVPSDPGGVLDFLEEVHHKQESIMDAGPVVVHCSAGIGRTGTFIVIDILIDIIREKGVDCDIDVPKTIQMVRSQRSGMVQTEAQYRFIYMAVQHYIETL

Row | Structure (SMILES) | IC50 [1, 3] | IC50 [2, 4] | IC50 [2, 5] | IC50 ([1]; SHP2wt-IC50, 0.5 nM SHP-2 activated by 500 nM IRS1 peptide) | IC50 ([2]; Homo sapiens, KYSE-520, 2 h)
1 | CNC[C@]1(c2nc(C)cs2)[C@@H]2CN(c3cnc4c(-c5ccc6nn(C)cc6c5Cl)n[nH]c4n3)C[C@@H]21 [Example 484, 1-((1R,5S,6r)-3-(3-(4-chloro-2-methyl-2H-indazol-5-yl)-1H-pyrazolo[3,4-b]pyrazin-6-yl)-6-(4-methylthiazol-2-yl)-3-azabicyclo[3.1.0]hexan-6-yl)-N-methylmethanamine] | < 0.5 µM | < 1 µM |  |  | 
2 | Cc1csc([C@@]2(CN)[C@@H]3CN(c4cnc5c(-c6ccc7nsnc7c6Cl)n[nH]c5n4)C[C@@H]32)n1 [Example 467] | < 0.5 µM |  | < 1 µM |  | 
3 | COc1cnc2ccc(-c3n[nH]c4nc(N5CC[C@@H]6[C@H](C5)[C@@]6(CN)c5cc(C)on5)cnc34)c(Cl)c2n1 [Example 112, ((1S,6R,7S)-3-(3-(5-chloro-3-methoxyquinoxalin-6-yl)-1H-pyrazolo[3,4-b]pyrazin-6-yl)-7-(5-methylisoxazol-3-yl)-3-azabicyclo[4.1.0]heptan-7-yl)methanamine] | < 0.5 µM | < 1 µM |  |  | 
4 | NC[C@]1(c2ccccc2F)[C@@H]2CCN(c3cnc4c(-c5ccc6nn(CC(F)(F)F)cc6c5Cl)n[nH]c4n3)C[C@@H]21 [Example 361, ((1S,6R,7R)-3-(3-(4-chloro-2-(2,2,2-trifluoroethyl)-2H-indazol-5-yl)-1H-pyrazolo[3,4-b]pyrazin-6-yl)-7-(2-fluorophenyl)-3-azabicyclo[4.1.0]heptan-7-yl)methanamine] | < 0.5 µM | < 1 µM |  |  | 
5 | NC[C@]1(c2ccccc2F)[C@@H]2CCN(c3cnc4c(-c5ccc6c(=O)[nH]ncc6c5Cl)n[nH]c4n3)C[C@@H]21 [Example 340] | < 0.5 µM |  | < 1 µM |  | 
6 | Cn1ccc2c(-c3n[nH]c4nc(N5CC[C@@H]6[C@H](C5)[C@@]6(CN)c5ccccc5F)cnc34)cccc2c1=O [Example 274, 5-(6-((1S,6R,7R)-7-(aminomethyl)-7-(2-fluorophenyl)-3-azabicyclo[4.1.0]heptan-3-yl)-1H-pyrazolo[3,4-b]pyrazin-3-yl)-2-methylisoquinolin-1(2H)-one] | < 0.5 µM | < 1 µM |  |  | 
7 | Cc1cc([C@@]2(CN)[C@@H]3CCN(c4cnc5c(-c6ccc7nn(C)cc7c6Cl)n[nH]c5n4)C[C@@H]32)no1 [Example 46, ((1S,6R,7S)-3-(3-(4-chloro-2-methyl-2H-indazol-5-yl)-1H-pyrazolo[3,4-b]pyrazin-6-yl)-7-(5-methylisoxazol-3-yl)-3-azabicyclo[4.1.0]heptan-7-yl)methanamine] | < 0.5 µM | < 1 µM |  |  | 
8 | Cc1c(-c2n[nH]c3nc(N4CC[C@@H]5[C@H](C4)[C@@]5(CN)c4ccc(F)cc4F)cnc23)ccc2nn(C)cc12 [Example 199, ((1S,6R,7R)-7-(2,4-difluorophenyl)-3-(3-(2,4-dimethyl-2H-indazol-5-yl)-1H-pyrazolo[3,4-b]pyrazin-6-yl)-3-azabicyclo[4.1.0]heptan-7-yl)methanamine] | < 0.5 µM | < 1 µM |  |  | 
9 | NC[C@]1(c2ccccc2F)[C@@H]2CCN(c3cnc4c(-c5ccn6nccc6c5)n[nH]c4n3)C[C@@H]21 [Example 136, ((1S,6R,7R)-7-(2-fluorophenyl)-3-(3-(pyrazolo[1,5-a]pyridin-5-yl)-1H-pyrazolo[3,4-b]pyrazin-6-yl)-3-azabicyclo[4.1.0]heptan-7-yl)methanamine] | < 0.5 µM | < 1 µM |  |  | 
10 | Cc1csc(C2(CN)C3CCN(c4cnc5c(-c6cccc(F)c6F)n[nH]c5n4)CC32)n1 (centres unmarked) [Example 86, (3-(3-(2,3-difluorophenyl)-1H-pyrazolo[3,4-b]pyrazin-6-yl)-7-(4-methylthiazol-2-yl)-3-azabicyclo[4.1.0]heptan-7-yl)methanamine] | < 0.5 µM | < 1 µM |  |  | 
11 | NC[C@]1(c2ccccc2F)[C@@H]2CCN(c3cnc4c(-c5ccc(-c6nn[nH]n6)cc5Cl)n[nH]c4n3)C[C@@H]21 [Example 285, ((1S,6R,7R)-3-(3-(2-chloro-4-(2H-tetrazol-5-yl)phenyl)-1H-pyrazolo[3,4-b]pyrazin-6-yl)-7-(2-fluorophenyl)-3-azabicyclo[4.1.0]heptan-7-yl)methanamine] | < 0.5 µM | > 5 µM |  |  | 
12 | NC[C@]1(c2ccccc2F)[C@@H]2CCN(c3cnc4c(-c5ccc(OS(=O)(=O)F)c6ncccc56)n[nH]c4n3)C[C@@H]21 [Example 449, 5-(6-((1S,6R,7R)-7-(aminomethyl)-7-(2-fluorophenyl)-3-azabicyclo[4.1.0]heptan-3-yl)-1H-pyrazolo[3,4-b]pyrazin-3-yl)quinolin-8-yl sulfurofluoridate] |  |  |  | < 0.5 µM | < 1 µM

Now from value to molecule, other results behind:

Row | IC50 [1, 3] | IC50 [2, 4] | IC50 [2, 5] | Structure (SMILES) | IC50 ([1]; SHP2wt-IC50, 0.5 nM SHP-2 activated by 500 nM IRS1 peptide) | IC50 ([2]; Homo sapiens, KYSE-520, 2 h)
13 | < 0.5 µM |  | < 1 µM | NC[C@]1(c2ccccc2F)[C@@H]2CCN(c3cnc4c(-c5ccc6c(c5)ncn6C(F)F)n[nH]c4n3)C[C@@H]21 [Example 418] |  | 
14 | < 0.5 µM | < 1 µM |  | NC[C@]1(c2ccccc2F)[C@@H]2CCN(c3cnc4c(-c5ccc(-c6noc(O)n6)cc5Cl)n[nH]c4n3)C[C@@H]21 [Example 295, 3-(4-(6-((1S,6R,7R)-7-(aminomethyl)-7-(2-fluorophenyl)-3-azabicyclo[4.1.0]heptan-3-yl)-1H-pyrazolo[3,4-b]pyrazin-3-yl)-3-chlorophenyl)-1,2,4-oxadiazol-5-ol] |  | 
15 | < 0.5 µM | < 1 µM |  | NC[C@]1(c2ccccc2F)[C@@H]2CCN(c3cnc4c(-c5cccc6[nH]c(=O)ccc56)n[nH]c4n3)C[C@@H]21 [Example 210, 5-(6-((1S,6R,7R)-7-(aminomethyl)-7-(2-fluorophenyl)-3-azabicyclo[4.1.0]heptan-3-yl)-1H-pyrazolo[3,4-b]pyrazin-3-yl)quinolin-2(1H)-one] |  | 
16 | < 0.5 µM | < 1 µM |  | CS(=O)(=O)c1ccc(-c2n[nH]c3nc(N4CC[C@@H]5[C@H](C4)[C@@]5(CN)c4ccccc4F)cnc23)c2cccnc12 [Example 521, ((1S,6R,7R)-7-(2-fluorophenyl)-3-(3-(8-(methylsulfonyl)quinolin-5-yl)-1H-pyrazolo[3,4-b]pyrazin-6-yl)-3-azabicyclo[4.1.0]heptan-7-yl)methanamine] |  | 
17 | < 0.5 µM | < 1 µM |  | Cc1cc(C2(CN)C3CCN(c4cnc5c(-c6ccnc(Cl)c6Cl)n[nH]c5n4)CC32)no1 (centres unmarked) [Example 31, (3-(3-(2,3-dichloropyridin-4-yl)-1H-pyrazolo[3,4-b]pyrazin-6-yl)-7-(5-methylisoxazol-3-yl)-3-azabicyclo[4.1.0]heptan-7-yl)methanamine] |  | 
18 | < 0.5 µM | < 1 µM |  | Cc1ccc([C@@]2(CN)[C@@H]3CN(c4cnc5c(-c6ccc7nn(C)cc7c6Cl)n[nH]c5n4)C[C@@H]32)nc1 [Example 493, ((1R,5S,6r)-3-(3-(4-chloro-2-methyl-2H-indazol-5-yl)-1H-pyrazolo[3,4-b]pyrazin-6-yl)-6-(5-methylpyridin-2-yl)-3-azabicyclo[3.1.0]hexan-6-yl)methanamine] |  | 
19 | < 0.5 µM | < 1 µM |  | Cn1cc2c(Cl)c(-c3n[nH]c4nc(N5C[C@@H]6[C@H](C5)[C@@]6(CN)c5nc(Cl)cs5)cnc34)ccc2n1 [Example 487, ((1R,5S,6r)-3-(3-(4-chloro-2-methyl-2H-indazol-5-yl)-1H-pyrazolo[3,4-b]pyrazin-6-yl)-6-(4-chlorothiazol-2-yl)-3-azabicyclo[3.1.0]hexan-6-yl)methanamine] |  | 

Source: patent US20240109900A1, “AZABICYCLIC SHP2 INHIBITORS” (IRBM S.P.A., priority 2021, published 2024)
